Test results: US10975119B2, “Selective cysteine protease inhibitors and uses thereof” (Genesis Technologies Limited, priority 2011, dated 2021)
Like-named read-outs stand apart in the source and are kept apart here.

Columns and labels:
Type in all cases: biochemical
Caspase-1 = target: T1, Caspase-1 (Homo sapiens, UniProt P29466); experiment: Caspase-1 inhibitor screening assay (BioVision kit, YVAD-AFC); conditions: read-out: IC50 Casp1
T1 construct: mixing the compounds with the respective active caspases; purchased BioVision K151-100
T1 sequence (P29466 120-297 limits assumed): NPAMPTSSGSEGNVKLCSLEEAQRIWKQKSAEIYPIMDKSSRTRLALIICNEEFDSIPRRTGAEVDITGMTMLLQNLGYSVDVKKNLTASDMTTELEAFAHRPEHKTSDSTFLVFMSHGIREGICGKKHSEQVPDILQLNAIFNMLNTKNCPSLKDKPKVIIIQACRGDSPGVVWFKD
T1 sequence (P29466 317-404 limits assumed): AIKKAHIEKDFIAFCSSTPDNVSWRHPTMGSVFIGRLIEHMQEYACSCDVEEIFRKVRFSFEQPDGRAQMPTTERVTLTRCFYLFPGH
Protocol: (§1) The efficacy of an array of compounds as an inhibitor of the activity of Caspases 1 through 10 were assessed by using the respective Caspase Inhibitor Drug Screening Kits (Caspase-1 Catalog #: K151-100, Caspase-2 Catalog #: K152-100, Caspase-3 Catalog #: K153-100, Caspase-4 Catalog #: K154-100, Caspase-5 Catalog #: K155-100, Caspase-6 Catalog #: K156-100, Caspase-7 Catalog #: K157-100, Caspase-8 Catalog #: K158-100, Caspase-9 Catalog #: K159-100, Caspase-10 Catalog #: K160-100, BioVision) following the instructions of the manufacturer. […] Active caspases cleaved their respective synthetic substrates to release free AFC, which was then quantified by fluorometry.
(§2) Briefly, the compounds were first tested at 2 concentrations (10 uM and 100 uM final) to determine if there is a hit. […] Each condition was tested in duplicates. […] For some samples, a smaller range of concentrations was tested depending on the % Inhibition results at 10 uM and 100 uM. Results were summarized in Tables 2, 3, and 4 herein after. Table 2 represents the IC50 values (uM) of the test compounds as inhibitors of the activity of the various caspases.
(§3) (*) RFU (no inhibitor control)—RFU (compound at a specific concentration)
(§4) RFU (no inhibitor control)

Caspase-3 = target: T2, Caspase-3 (Homo sapiens, UniProt P42574); experiment: Caspase-3 inhibitor screening assay (BioVision kit, DEVD-AFC); conditions: read-out: IC50 Casp3
T2 construct: mixing the compounds with the respective active caspases; purchased BioVision K153-100
T2 sequence (P42574 29-175 limits assumed): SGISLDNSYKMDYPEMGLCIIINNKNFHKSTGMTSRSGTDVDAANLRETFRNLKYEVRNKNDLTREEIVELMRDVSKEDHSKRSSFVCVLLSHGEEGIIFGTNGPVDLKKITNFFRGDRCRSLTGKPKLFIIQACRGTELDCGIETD
T2 sequence (P42574 176-277 limits assumed): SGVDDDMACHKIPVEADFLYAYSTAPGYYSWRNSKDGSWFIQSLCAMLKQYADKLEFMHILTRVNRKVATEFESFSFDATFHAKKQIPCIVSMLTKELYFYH
Protocol: as §1, §2, §3, §4

Caspase-4 = target: T3, Caspase-4 (Homo sapiens, UniProt P49662); experiment: Caspase-4 inhibitor screening assay (BioVision kit, LEVD-AFC); conditions: read-out: IC50 Casp4
T3 construct: mixing the compounds with the respective active caspases; purchased BioVision K154-100
T3 sequence (P49662 81-270 limits assumed): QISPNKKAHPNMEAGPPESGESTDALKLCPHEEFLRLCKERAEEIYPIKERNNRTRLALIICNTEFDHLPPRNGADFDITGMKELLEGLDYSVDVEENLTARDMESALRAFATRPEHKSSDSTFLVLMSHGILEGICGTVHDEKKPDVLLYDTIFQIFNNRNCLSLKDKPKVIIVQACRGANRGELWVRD
T3 sequence (P49662 290-377 limits assumed): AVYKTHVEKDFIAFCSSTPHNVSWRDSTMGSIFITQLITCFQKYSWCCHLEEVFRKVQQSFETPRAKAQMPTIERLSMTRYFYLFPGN
Protocol: as §1, §2, §3, §4

Caspase-5 = target: T4, Caspase-5 (Homo sapiens, UniProt P51878); experiment: Caspase-5 inhibitor screening assay (BioVision kit, WEHD-AFC); conditions: read-out: IC50 Casp5
T4 construct: mixing the compounds with the respective active caspases; purchased BioVision K155-100
T4 sequence (P51878 137-327 limits assumed): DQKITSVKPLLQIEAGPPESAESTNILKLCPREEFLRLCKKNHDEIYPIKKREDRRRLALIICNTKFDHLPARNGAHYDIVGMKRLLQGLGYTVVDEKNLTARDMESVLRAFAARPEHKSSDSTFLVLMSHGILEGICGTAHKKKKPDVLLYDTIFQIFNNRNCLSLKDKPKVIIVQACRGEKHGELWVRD
T4 sequence (P51878 347-434 limits assumed): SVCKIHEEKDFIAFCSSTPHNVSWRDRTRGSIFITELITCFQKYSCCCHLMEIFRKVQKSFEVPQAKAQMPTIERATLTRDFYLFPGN
Protocol: as §1, §2, §3, §4

Caspase-6 = target: T5, Caspase-6 (Homo sapiens, UniProt P55212); experiment: Caspase-6 inhibitor screening assay (BioVision kit, VEID-AFC)
T5 construct: mixing the compounds with the respective active caspases; purchased BioVision K156-100
T5 sequence (P55212 24-179 limits assumed): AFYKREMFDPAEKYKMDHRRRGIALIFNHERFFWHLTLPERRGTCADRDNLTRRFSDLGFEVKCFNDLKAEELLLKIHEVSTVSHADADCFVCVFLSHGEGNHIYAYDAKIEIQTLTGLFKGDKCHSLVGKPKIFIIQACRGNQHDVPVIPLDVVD
T5 sequence (P55212 194-293 limits assumed): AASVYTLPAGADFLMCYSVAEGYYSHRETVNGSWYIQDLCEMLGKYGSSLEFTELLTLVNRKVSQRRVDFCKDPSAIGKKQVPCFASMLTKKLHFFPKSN
Protocol: as §1, §2, §3, §4

Caspase-7 = target: T6, Caspase-7 (Homo sapiens, UniProt P55210); experiment: Caspase-7 inhibitor screening assay (BioVision kit, DEVD-AFC); conditions: read-out: IC50 Casp7
T6 construct: mixing the compounds with the respective active caspases; purchased BioVision K157-100
T6 sequence (P55210 24-198 limits assumed): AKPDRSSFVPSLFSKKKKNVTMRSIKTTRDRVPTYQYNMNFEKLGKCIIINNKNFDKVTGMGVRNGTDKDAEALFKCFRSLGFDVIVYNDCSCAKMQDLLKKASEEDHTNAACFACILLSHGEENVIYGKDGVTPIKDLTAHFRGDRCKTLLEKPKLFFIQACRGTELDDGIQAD
T6 sequence (P55210 207-303 limits assumed): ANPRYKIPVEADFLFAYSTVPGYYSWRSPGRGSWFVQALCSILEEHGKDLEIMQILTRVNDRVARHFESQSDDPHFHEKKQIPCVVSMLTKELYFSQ
Protocol: as §1, §2, §3, §4

Caspase-8 = target: T7, Caspase-8 (Homo sapiens, UniProt Q14790); experiment: Caspase-8 inhibitor screening assay (BioVision kit, IETD-AFC); conditions: read-out: IC50 Casp8
T7 construct: mixing the compounds with the respective active caspases; purchased BioVision K158-100
Protocol: as §1, §2, §3, §4

Caspase-9 = target: T8, Caspase-9 (Homo sapiens, UniProt P55211); experiment: Caspase-9 inhibitor screening assay (BioVision kit, LEHD-AFC); conditions: read-out: IC50 Casp9
T8 construct: purchased BioVision K159-100
T8 sequence (P55211 1-315 limits assumed): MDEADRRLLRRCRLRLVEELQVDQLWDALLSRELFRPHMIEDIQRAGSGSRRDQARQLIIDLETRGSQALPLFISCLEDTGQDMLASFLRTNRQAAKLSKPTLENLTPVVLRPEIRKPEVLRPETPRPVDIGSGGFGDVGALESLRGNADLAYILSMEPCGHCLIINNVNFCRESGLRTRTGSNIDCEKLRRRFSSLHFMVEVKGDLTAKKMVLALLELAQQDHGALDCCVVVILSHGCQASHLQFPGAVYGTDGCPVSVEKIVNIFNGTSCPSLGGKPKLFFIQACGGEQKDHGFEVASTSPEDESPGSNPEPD
T8 sequence (P55211 331-416 limits assumed): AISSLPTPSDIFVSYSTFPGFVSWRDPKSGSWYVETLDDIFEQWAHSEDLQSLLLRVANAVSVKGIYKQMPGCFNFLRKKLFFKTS
Protocol: as §1, §2, §3, §4

Caspase-10 = target: T9, Caspase-10 (Homo sapiens, UniProt Q92851); experiment: Caspase-10 inhibitor screening assay (BioVision kit, AEVD-AFC); conditions: read-out: IC50 Casp10
T9 construct: mixing the compounds with the respective active caspases; purchased BioVision K160-100
T9 sequence (Q92851 220-415 limits assumed): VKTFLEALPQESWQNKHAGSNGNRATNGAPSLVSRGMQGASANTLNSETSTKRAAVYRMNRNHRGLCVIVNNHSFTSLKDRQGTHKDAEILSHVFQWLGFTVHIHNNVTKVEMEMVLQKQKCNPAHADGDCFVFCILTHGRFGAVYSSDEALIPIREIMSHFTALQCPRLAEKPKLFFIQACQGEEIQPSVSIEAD
T9 sequence (Q92851 416-521 limits assumed): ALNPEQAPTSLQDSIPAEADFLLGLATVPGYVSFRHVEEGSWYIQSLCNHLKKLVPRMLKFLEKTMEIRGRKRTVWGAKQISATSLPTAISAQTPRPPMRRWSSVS
Protocol: as §1, §2, §3, §4

T7 sequence (Q14790 217-374 limits assumed): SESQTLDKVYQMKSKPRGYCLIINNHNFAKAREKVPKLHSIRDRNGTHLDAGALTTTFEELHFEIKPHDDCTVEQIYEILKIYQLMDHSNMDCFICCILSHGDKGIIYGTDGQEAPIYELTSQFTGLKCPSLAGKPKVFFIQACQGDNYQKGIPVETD
T7 sequence (Q14790 385-479 limits assumed): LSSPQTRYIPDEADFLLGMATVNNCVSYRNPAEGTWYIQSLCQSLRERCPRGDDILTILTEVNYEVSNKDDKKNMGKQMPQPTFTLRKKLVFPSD

SMILES	IC50 (Caspase-1) [µM]	IC50 (Caspase-3) [µM]	IC50 (Caspase-4) [µM]	IC50 (Caspase-5) [µM]	IC50 (Caspase-6; read-out: IC50 Casp6) [µM]	IC50 (Caspase-7) [µM]	IC50 (Caspase-8) [µM]	IC50 (Caspase-6; read-out: inhibition (IC50) against Caspase-6) [µM]	IC50 (Caspase-9) [µM]	IC50 (Caspase-10) [µM]
CCOC(=O)/C(Cl)=C/[C@H](CC(=O)O)NC(=O)[C@H]1CCCN1C(=O)[C@@H](NC(=O)c1ccc(N)c(Cl)c1)C(C)(C)C [Compound 117, 4-amino-3-chlorobenzene carbonyl-t-Leu-Pro-Asp αchlorovinyl Ethyl Vinyl Ester]	0.11	> 100	0.07	0.9	> 100	> 100	1.4	–	–	–
CCC(C)[C@H](NC(=O)[C@H](CCC(=O)O)NC(=O)[C@@H](NC(=O)OCc1ccccc1)C(C)C)C(=O)N[C@H](/C=C(\Cl)S(C)(=O)=O)CC(=O)O (stereo partly drawn) [Compound 123, Z-Val-Glu-Ile-Asp-achlorovinyl methyl vinyl sulfone]	3.88	1.34	1.8	4.2	–	–	0.53	0.229	6.4	0.19
CCOC(=O)/C(Cl)=C/[C@H](CC(=O)O)NC(=O)[C@H]1CCCN1C(=O)[C@H](NC(=O)[C@H](CC(=O)O)NC(=O)OCc1ccccc1)C(C)(C)C [Compound 57, Z-Asp-t-Leu-Pro-Asp αchlorovinyl Ethyl Vinyl Ester]	7.9	1.27	> 100	16	> 100	0.15	–	–	–	0.05
